Source: ChEMBL document CHEMBL5370631, “Emopamil-Binding Protein Inhibitors for Treating Multiple Sclerosis” (ACS Med Chem Lett, 2023)

Target: 3-beta-hydroxysteroid-Delta(8),Delta(7)-isomerase (Homo sapiens, UniProt Q15125)
Assay: Inhibition of human EBP isolated from HEK293T cells assessed as reduction in dihydrolathosterol-d5 formation using zymosterol-d5 as substrate pre incubated for 30 mins followed by substrate addition and incubated at 37 degC for 4 hrs by LC-APCI MRM MS analysis
Assay type: cell-free, HEK-293T

3-beta-hydroxysteroid-Delta(8),Delta(7)-isomerase, sequence (Q15125 whole entry): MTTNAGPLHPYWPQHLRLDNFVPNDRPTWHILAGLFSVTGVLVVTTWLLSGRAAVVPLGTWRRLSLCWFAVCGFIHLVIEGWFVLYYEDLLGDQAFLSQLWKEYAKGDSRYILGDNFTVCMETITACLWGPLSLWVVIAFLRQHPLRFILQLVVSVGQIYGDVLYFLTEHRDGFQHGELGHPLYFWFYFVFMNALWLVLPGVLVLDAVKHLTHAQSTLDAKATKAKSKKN

Compound	IC50
CC12CC(NC3CC4CCC(C3)N4S(=O)(=O)c3ccc(OC(F)F)cc3)(CO1)C2 (stereo unspecified)	< 50 nM
O=S(=O)(c1ccc(OC(F)F)cc1)N1C2CCC1CC(NC1CCOCC1)C2 (stereo unspecified)	< 50 nM
CC1CCN([C@H]2C[C@H]3CC[C@@H](C2)N3S(=O)(=O)c2ccc(OC(F)F)cc2)CC1	< 50 nM
Cc1cc(S(=O)(=O)N2[C@@H]3CC[C@H]2C[C@@H](CN2CCOCC2)C3)n(C)n1	< 50 nM
O=S(=O)(c1ccc(OC(F)F)cc1)N1C2CCC1CC(NCC1CCOCC1)C2 (stereo unspecified)	< 50 nM
O=S(=O)(c1ccc(OC(F)F)cc1)N1[C@@H]2CC[C@H]1C[C@@H](NCC1(O)CCOCC1)C2	< 50 nM
